Earlier results in patent US20230168217A1, “Test strip for the detection of neutral analytes in a sample” (priority 2020, published 2023).
Where “and” joins values, the source holds several entries; their conditions need not be identical. Equal values may be shown once. Read-outs that look alike come from different tables or passages of the source.

Assays:
[1] = previously reported
[2] = not given; remark: listed apart in the source

COc1cccc(C2(O)CCCCC2CN(C)C)c1 (centres unmarked) [tramadol]
concentrations in fatal cases of poisoning: ~3.8 µM

CN1CC[C@]23c4c5ccc(O)c4O[C@H]2[C@@H](O)C=C[C@H]3[C@H]1C5 [morphine]
concentrations in fatal cases of poisoning: approximately 1.75 µM

CC(=O)Nc1ccc(O)cc1 [paracetamol]
Protein bound fractions [1]: 20-25% | Serum levels predicting hepatotoxicity ([2]; 4 hours postingestion): ≥ 200 µg/ml and ≥ 1.323 mM | Serum levels predicting hepatotoxicity ([2]; 24 h post-ingestion): ≥ 6.25 µg/mL and ≥ 43.1 µM
